Experimental data published in patent US20040156881A1, “Use of lignans in foods” (priority 2001, published 2004).

What was measured:
[1] = test system: Prostaglandin E2 (=PGE2) production by the human skin fibroblasts; assay: PGE2 levels in PMA-induced human dermal fibroblasts (anti-inflammatory cell assay); format: cell-based; conditions: primary human foreskin fibroblasts, FIGS. 1 and 2; for concentration dependence of anti-inflammatory effect as measured by a reduction in PGE2: increasing concentrations; for anti-inflammatory effect (PGE2 level versus control+veh+PMA): three concentration levels
Experimental: It is emphasized that the anti-inflammatory effects were determined by in vitro tests wherein the Prostaglandin E2 (=PGE2) production by the human skin fibroblasts is measured after being induced by the inflammatory modulus phorbyl myristyl acetate (PMA). A reduction of the levels of PGE2 is indicative of the anti-inflammatory effect.
Fibroblast cell assay: Primary human foreskin fibroblasts at passage 2 (P2) were seeded into 96-well plates at 35000 cells/well and maintained for 24 hours in an atmosphere of 5% carbon dioxide in Dulbeccos Modified Eagles Medium (DMEM) supplemented with 10% foetal calf serum.
The lignan-compound (SECO or MAT) was added to fresh cell media (DMEM, supplemented with 10% foetal calf serum) in 100% ethanol (final concentration 1%) in triplicate and incubated for a further 24 hours. Phorbal myristate acetate (PMA) in ethanol/cell media ([…]) was added to the cells treated with the lignan compound (SECO) and the cells incubated for a further 24 hours. PMA represents an external stressor, which induces oxidative stress and inflammatory responses in cells. The fibroblasts/media were then analysed as described below immediately, or, snap frozen in liquid nitrogen and stored at −70° C. for future analysis. The cells were then counted to ensure no effect on cell number.
Different concentrations of SECO or MAT were used in the above method to study the effect of concentration. A series of control experiments were also carried out according to the above method; Control+veh+PMA (positive control), Control+veh (negative control) and control (standard control).
Prostaglandin E2 (PGE2) assay volumes of 50 μl culture medium were taken for PGE2 assay from the above samples after gently shaking the culture plate. PGE2 levels in the medium were determined with a Biotrak PGE2 immunoassay kit (Amersham, UK). The assay is based on the competition between unlabelled PGE2 in the sample and a fixed quantity of horseradish peroxidase labelled PGE2 for a limited amount of fixed PGE2 specific antibody. Concentrations of unlabelled sample PGE2 are determined according to a standard curve, which was obtained at the same time.

[2] = test system: Procollagen-I and Decorin production by the human dermal fibroblasts; assay: Procollagen-I and decorin synthesis in human dermal fibroblasts (anti-ageing cell assay, dot blot); format: cell-based; conditions: primary human foreskin fibroblasts, serum free DMEM, 24 hours, different concentration levels, FIGS. 3 and 4
Experimental: It is emphasized that the anti-ageing effects were determined by in vitro tests wherein the Procollagen-I and Decorin production by the human dermal fibroblasts is measured after being induced by the anti-ageing stimulus. An increase in the levels of Procollagen-I is indicative of the anti-ageing effect.
Preparation of Dermal Fibroblast Conditioned Medium: Primary human foreskin fibroblasts at passage 2 (P2) were seeded into 12-well plates at 40000 cells/well and maintained for 24 hours in an atmosphere of 5% carbon dioxide and 4% oxygen in Dulbeccos Modified Eagles Medium (DMEM) supplemented with 10% foetal calf serum. After this time the cells were washed with serum free DMEM and then incubated in fresh serum free DMEM for a further 60 hours. The fibroblast monolayers were then washed again with serum free DMEM.
The test reagent (MAT and SECO at different concentration levels) and vehicle control (1% ethanol final concentration) were added to the cells in triplicate in a final volume of 0.4 ml/well fresh serum free DMEM and incubated for a further 24 hours. This fibroblast conditioned medium was either analysed immediately, or, snap frozen in liquid nitrogen and stored at −70° C. for future analysis. The cells were then counted and data from the dot-blot analysis subsequently standardised to cell number. […]

| Structure (SMILES) | concentration dependence of anti-inflammatory effect as measured by a reduction in PGE2 [1] | anti-inflammatory effect (PGE2 level versus control+veh+PMA) [1] | anti-ageing effects (procollagen-I and decorin synthesis relative to vehicle treated control of 100 arbitrary units) [2] |
| --- | --- | --- | --- |
| COc1cc(C[C@H]2COC(=O)[C@@H]2Cc2ccc(O)c(OC)c2)ccc1O [MAT, matairesinol] | produced increasing anti-inflammatory effects | effective in producing an anti-inflammatory effect in human cells | showed increased anti-ageing effects in human cells compared to a control sample |
| COc1cc(C[C@@H](CO)[C@H](CO)Cc2ccc(O)c(OC)c2)ccc1O [SECO, secoisolariciresinol] | produced increasing anti-inflammatory effects | effective in producing an anti-inflammatory effect in human cells | showed increased anti-ageing effects in human cells compared to a control sample |
